Reference: PubChem BioAssay (NCI)
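1) Cells in 96-well plates. 2) Compound, 48 h, 5 concentrations. 3) Linear interpolation between surrounding doses. 4) Unreached endpoint = highest concentration. GI50 = concentration required for 50% inhibition of growth. TGI: total growth inhibition.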

Key:
Test in all cases: NCI-60 cell line screen, 48 h
[1] = system: RPMI-8226 leukemia
[2] = system: UACC-257 melanoma
[3] = system: SF-295 CNS
[4] = system: T-47D breast
[5] = system: MOLT-4 leukemia
[6] = system: HCC-2998 colon
[7] = system: NCI-H23 lung
[8] = system: COLO 205 colon
[9] = system: LOX IMVI melanoma
[10] = system: SN12C renal
[11] = system: U251 CNS
[12] = system: K-562 leukemia
[13] = system: A498 renal
[14] = system: MALME-3M melanoma
[15] = system: SNB-75 CNS
[16] = system: RXF 393 renal
[17] = system: SW-620 colon
[18] = system: CAKI-1 renal
[19] = system: SNB-19 CNS
[20] = system: PC-3 prostate
[21] = system: EKVX NSCLC
[22] = system: 786-0 renal
[23] = system: TK-10 renal
[24] = system: SF-539 CNS
[25] = system: NCI-H226 lung
[26] = system: SF-268 CNS
[27] = system: UO-31 renal
[28] = system: SK-MEL-2 melanoma
[29] = system: HS 578T breast
[30] = system: IGROV1 ovarian
[31] = system: NCI-H522 lung
[32] = system: KM12 colon
[33] = system: DU-145 prostate
[34] = system: MDA-MB-231 breast
[35] = system: HOP-62 NSCLC
[36] = system: A549 NSCLC
[37] = system: UACC-62 melanoma
[38] = system: NCI-H460 lung
[39] = system: CCRF-CEM leukemia
[40] = system: SR leukemia
[41] = system: HCT-116 colon
[42] = system: M14 melanoma
[43] = system: ACHN renal
[44] = system: SK-OV-3 ovarian
[45] = system: HL-60(TB) leukemia
[46] = system: SK-MEL-28 melanoma
[47] = system: MDA-MB-435
[48] = system: MCF7 breast
[49] = system: NCI/ADR-RES ovarian
[50] = system: SK-MEL-5 melanoma
[51] = system: OVCAR-5 ovarian
[52] = system: HT29 colon
[53] = system: OVCAR-4 ovarian
[54] = system: HCT-15 colon
[55] = system: OVCAR-8 ovarian
[56] = system: HOP-92 NSCLC
[57] = system: BT-549 breast

With O=C(NNc1nc2cc(F)ccc2n2c(CN3CCC(O)C3)ccc12)c1cnccn1 (stereo not drawn) the GI50 [1] was 747 nM, the TGI [1] was > 100000 nM and the GI50 [2] was 1710 nM. The TGI [2] was 7530 nM, the GI50 [3] was 421 nM and the TGI [3] was > 100000 nM. The GI50 [4] was 1190 nM, the TGI [4] was > 100000 nM and the GI50 [5] was 489 nM. The TGI [5] was > 51300 nM, the GI50 [6] was 738 nM and the TGI [6] was > 100000 nM. The GI50 [7] was 1100 nM, the TGI [7] was > 100000 nM and the GI50 [8] was 406 nM. The TGI [8] was > 100000 nM, the GI50 [9] was 417 nM and the TGI [9] was 6160 nM. For the same molecule, the GI50 [10] was 953 nM, the TGI [10] was > 100000 nM and the GI50 [11] was 470 nM. The TGI [11] was > 100000 nM, the GI50 [12] was 564 nM and the TGI [12] was > 100000 nM. The GI50 [13] was 2040 nM, the TGI [13] was 8910 nM and the GI50 [14] was 1570 nM. For the same molecule, the TGI [14] was > 100000 nM, the GI50 [15] was 1960 nM and the TGI [15] was > 30400 nM. For the same molecule, the GI50 [16] was 946 nM, the TGI [16] was > 40500 nM and the GI50 [17] was 973 nM. For the same molecule, the TGI [17] was > 100000 nM, the GI50 [18] was 515 nM and the TGI [18] was > 100000 nM. The GI50 [19] was 1000 nM, the TGI [19] was > 100000 nM and the GI50 [20] was 790 nM. The TGI [20] was > 100000 nM, the GI50 [21] was 449 nM and the TGI [21] was > 100000 nM. For the same molecule, the GI50 [22] was 308 nM, the TGI [22] was > 22800 nM and the GI50 [23] was 921 nM. The TGI [23] was > 100000 nM, the GI50 [24] was 763 nM and the TGI [24] was > 100000 nM. The GI50 [25] was 920 nM, the TGI [25] was > 63400 nM and the GI50 [26] was 744 nM. For the same molecule, the TGI [26] was > 100000 nM, the GI50 [27] was 97.2 nM and the TGI [27] was 10100 nM. For the same molecule, the GI50 [28] was 4090 nM, the TGI [28] was > 100000 nM and the GI50 [29] was 8660 nM. The TGI [29] was > 100000 nM, the GI50 [30] was 679 nM and the TGI [30] was > 100000 nM. It also gave a GI50 [31] of 1130 nM, a TGI [31] of 14700 nM and a GI50 [32] of 573 nM. For the same molecule, the TGI [32] was > 100000 nM, the GI50 [33] was 981 nM and the TGI [33] was > 100000 nM. For the same molecule, the GI50 [34] was 941 nM, the TGI [34] was > 100000 nM and the GI50 [35] was 429 nM. The TGI [35] was > 30600 nM, the GI50 [36] was 555 nM and the TGI [36] was > 100000 nM. It also gave a GI50 [37] of 408 nM, a TGI [37] of 84400 nM and a GI50 [38] of 315 nM. For the same molecule, the TGI [38] was > 31600 nM, the GI50 [39] was 347 nM and the TGI [39] was > 100000 nM. For the same molecule, the GI50 [40] was 389 nM, the TGI [40] was > 21800 nM and the GI50 [41] was 87.6 nM. For the same molecule, the TGI [41] was > 35100 nM, the TGI [42] was 1080 nM and the GI50 [43] was 217 nM. For the same molecule, the TGI [43] was 36200 nM, the GI50 [44] was 858 nM and the TGI [44] was > 28900 nM. For the same molecule, the GI50 [45] was 622 nM, the TGI [45] was 6360 nM and the GI50 [46] was 795 nM. For the same molecule, the TGI [46] was > 100000 nM, the GI50 [47] was 1580 nM and the TGI [47] was > 100000 nM. For the same molecule, the GI50 [48] was 725 nM, the TGI [48] was > 100000 nM and the GI50 [49] was 330 nM. For the same molecule, the TGI [49] was > 35500 nM, the GI50 [50] was 1000 nM and the TGI [50] was 8290 nM. For the same molecule, the GI50 [51] was 1830 nM, the TGI [51] was > 100000 nM and the GI50 [52] was 512 nM. The TGI [52] was > 100000 nM, the GI50 [53] was 676 nM and the TGI [53] was > 100000 nM. For the same molecule, the GI50 [54] was 148 nM, the TGI [54] was > 100000 nM and the GI50 [55] was 439 nM. The TGI [55] was > 44500 nM, the GI50 [56] was 590 nM and the TGI [56] was > 100000 nM. It also gave a GI50 [57] of 327 nM and a TGI [57] of 9350 nM.
